US20250367211A1, “RESCUE TREATMENT OF POST OPERATIVE NAUSEA AND VOMITING” (ACACIA PHARMA LIMITED, priority 2017, published 2025)

Experiments:
[1] = compared with the (R+)-enantiomer; cited from earlier work
[2] = tested on: adult patients with established PONV who have had prior PONV prophylaxis; test: Study 1: rescue treatment of established PONV after failed prior prophylaxis; assay type: in vivo, human; details: for complete response (CR) rate: no emesis 30 min to 24 h and no rescue medication in 24 h, placebo 28.5%
Protocol: A randomised, double-blind, placebo-controlled study of amisulpride for IV injection as treatment of established postoperative nausea and vomiting, in patients who have had prior prophylaxis was conducted. The primary aim of the study was to compare the efficacy of 5 mg and 10 mg amisulpride to placebo as treatment of established PONV, in patients who have had prior PONV prophylaxis.
The study was performed in adult patients (≥18 years) with an expected duration of inhalational anaesthesia of at least 1 hour, who experienced PONV in the 24-hour period after surgery, having had prior PONV prophylaxis.
Amisulpride at a dose of 5 mg or 10 mg or matching placebo was given once by slow IV administration, over about 2 minutes.
The primary efficacy variable was the dichotomous variable: success or failure of initial PONV treatment, where success is defined as no emetic episodes (vomiting or retching) from 30 minutes to 24 hours after administration of study medication and no administration of antiemetic rescue medication at any time in the 24-hour period after study medication (a “complete response”).
The secondary efficacy variables included: • The occurrence and severity of nausea (a VRS score >0) and of significant nausea (a VRS score ≥4), including measures of the time course of nausea, such as area under the curve for nausea scores for time periods up to 24 hours. • The occurrence of vomiting (to include retching) after administration of study medication. • Use of anti-emetic rescue medication. • Time to failure of initial PONV treatment. • Sub-analyses of success and failure according to various parameters, including by time of onset of PONV relative to end of surgery and by sex.

[3] = tested on: adult surgical patients at moderate-to-high risk of suffering PONV; test: Phase II dose-ranging trial, IV amisulpride for PONV prophylaxis; assay type: in vivo, human
Protocol: In a multi-centre, double-blind, randomised, dose-ranging Phase II trial (conducted by the applicant), amisulpride was given intravenously to adult surgical patients at moderate-to-high risk of suffering PONV (prophylaxis), at doses of 1 mg, 5 mg and 20 mg, with a fourth group receiving placebo.

[4] = tested on: patients with PONV who had not received prior prophylaxis; test: Clinical trial, treatment of PONV in patients without prior prophylaxis; assay type: in vivo, human; details: no prior prophylaxis
Protocol: In another clinical trial conducted by the applicant, amisulpride at doses of 5 mg and 10 mg were compared with placebo for the treatment of PONV, in patients who had not received prior prophylaxis.

[5] = tested on: adult surgical patients at high risk of suffering PONV; test: Phase III trial, PONV prophylaxis in combination with a standard anti-emetic; assay type: in vivo, human; details: 5 mg in combination with a standard anti-emetic, 1147 evaluable patients, p<0.001 vs placebo plus standard anti-emetic (53%)
[6] = tested on: adult surgical patients at moderate-to-high risk of suffering PONV; test: Two Phase III placebo-controlled trials, PONV prophylaxis; assay type: in vivo, human; details: 5 mg, 626 evaluable patients, p<0.01 vs placebo (59%)

SMILES | share of therapeutic activity of amisulpride [1] | complete response (CR) rate ([2]; 5 mg once by slow IV, 237 patients, p = 0.109) | complete response (CR) rate ([2]; 10 mg once by slow IV, 230 patients, p = 0.003) | efficacy as PONV rescue treatment, 10 mg versus 5 mg dose ([2]; patients with prior unsuccessful PONV prophylaxis) | incidence of PONV ([3]; 1 mg intravenously, p<0.05 vs placebo (69%)) | incidence of PONV ([3]; 5 mg intravenously, p<0.01 vs placebo (69%)) | incidence of PONV compared to placebo ([3]; 20 mg intravenously, placebo 69%, not stated as significant) | treatment of PONV versus placebo ([4]; 5 mg) | treatment of PONV versus placebo ([4]; 10 mg) | clinical efficacy, 5 mg versus 10 mg dose ([4]; treatment of PONV) | incidence of PONV [5] | incidence of PONV [6]
CCN1CCCC1CNC(=O)c1cc(S(=O)(=O)CC)c(N)cc1OC (stereo not drawn) [(S−)-amisulpride] | almost all of the therapeutic activity | – | – | – | – | – | – | – | – | – | – | –
CCN1CCCC1CNC(=O)c1cc(S(=O)(=O)CC)c(N)cc1OC (racemic) [amisulpride] | – | 33.8% (p = 0.109) | 41.7%, (p = 0.003) | more effective | 48% | 40% | lower | significantly better than placebo | significantly better than placebo | no difference | 42% | 48%
